# Results reported in US12637418B2, “Heterocyclic compounds as antagonist of NMDA” (TAKEDA PHARMACEUTICAL COMPANY LIMITED, priority 2019, dated 2026).
# What was measured:
# [1] = continuous intravenous administration; cited from earlier work
# [2] = rodents; cited from earlier work
# [3] = target: NMDA receptor composed of four subunits including 2 sets of heterodimers of NR1 and NR2B (human GRIN1 and GRIN2B expressed in HEK293 cell) (Homo sapiens, UniProt Q13224); experiment: NR2B Ca^2+ influx assay; type: cell-based; details: 10 μM final compound concentration; 30 μM glutamic acid and 30 μM glycine; HEK293 cells expressing GRIN1 and GRIN2B; Fluo-4 fluorescence; read-out: inhibitory rate (10 μM compound concentration)
# From the text: To confirm the “antagonistic action on an NMDA receptor containing the NR2B subunit” of the compound of the present invention, human embryonic kidney cell expressing the “NMDA receptor composed of four subunits including 2 sets of heterodimers of NR1 and NR2B”, specifically HEK293 cell expressing human glutamate ionotropic receptor NMDA type subunit 1 (GRIN1) and human glutamate ionotropic receptor NMDA type subunit 2B (GRIN2B), was used and the activation suppressive effect on the receptors was measured.
# HEK293 cells that express GRIN1 and GRIN2B were purchased from ChanTest (Human NMDA (NR1/NR2B) Receptor-expressing, stable replicating cell line (HEK293) catalog No. CT6121).
# As an index of the NMDA receptor activation, intracellular calcium ion (Ca^2+) influx caused by the binding of glycine and glutamic acid with NR1 and NR2B, respectively, was used.
# HEK293 cells that express GRIN1 and GRIN2B were cultured in DMEM/F-12 (COSMO BIO, 10-092-CM) medium added with 10% FBS (fetal bovine serum, AusGene), 100 units/mL penicillin, 100 μg/mL streptomycin, 500 μg/mL neomycin, 100 μg/mL Zeocin (registered trade mark, Invitrogen), 5 μg/mL Blasticidin in a cell culture flask in an incubator (under 37° C., 5% CO2).
# The cells were detached from the flask with trypsin the day before the assay, suspended in a seeding medium (DMEM (Invitrogen, 31053) added with 10% FBS, 100 units/mL penicillin, 100 μg/mL streptomycin) at 8×10^5 cells/mL, seeded by 25 μL per well in a 384-well plate (Falcon, 356663) at 20000 cells/well, and cultured overnight in an incubator. On the day of the assay, tetracycline (Wako Pure Chemical Industries, Ltd., 209-16561) was diluted with the seeding medium at 2 μg/mL, added at 25 μL/well to the plate seeded with the cells, and cultured for 2 hr in an incubator. Thereafter, the medium was removed, and the cells were washed with 50 μL/well assay buffer (137 mM NaCl, 4 mM KCl, 1.8 mM CaCl2, 10 mM HEPES (pH 7.2), 10 mM Glucose, 0.1% BSA). Then, a loading buffer (assay buffer added with 2.5 μM Fluo-4AM, 2 mM Amaranth, 1 mM Tartrazine) was added at 25 μL/well, and the cells were incubated in the incubator for 30 min, and at room temperature for 15 min. A solution of the Example compound diluted with the above-mentioned assay buffer at 30 μM (final concentration 10 μM) was added at 25 μL/well, and the cells were left standing for 15 min at room temperature. Using FDSS7000EX/μCELL (Hamamatsu Photonics K.K.), an assay buffer containing 30 μM glutamic acid and 30 μM glycine was added at 25 μL/well, and fluorescence signals with wavelengths of Excitation 480 nm and Emission 540 nm were measured every 3 seconds for 5 min. The inhibitory activity was calculated as a relative activity value (inhibitory rate) that inhibits 100% of the cumulative value of the fluorescence value of a well added with an assay buffer free of glutamic acid, glycine, relative to the cumulative value of the fluorescence value of each well.
# [4] = system: NMDA receptor containing NR2B subunit (NMDA receptor expressed in the hippocampus tissue); experiment: In vivo [^3H]MK-801 binding test; design: species or system Sprague Dawley rats; details: [^3H]MK-801 binding inhibitory rate, rat hippocampus, vehicle 100%, MK-801 maleate 0%
# Procedure: In Vivo [^3H]MK-801 Binding Test
# To confirm the “functionally antagonistic action in vivo for NMDA receptor containing NR2B subunit” that the compound of the present invention has, a binding test was performed using a tritium-labeled form of MK-801 ((5R,10S)-5-methyl-10,11-dihydro-5H-5,10-epiminodibenzo[a,d][7]annulene) ([^3H]MK-801) which is a compound that binds to the gate of the NMDA receptor.
# An Example compound (1 mg/kg/2 mL, 0.5% MC water) or vehicle ([…], 0.5% MC water) was orally administered (p.o.) to Sprague Dawley rats (body weight 180-260 g). After a certain period of time (near the time when the maximum blood concentration was reached), [^3H]MK-801 (20 μCi/kg/mL, Muromachi Kikai Co., Ltd.) was intravenously administered from the tail vein. […] 10 mL of liquid scintillator A (Fujifilm Wako Pure Chemical Corporation) was added, and the residual radioactivity was measured by a liquid scintillation counter (ALOKA LSC-6100). The residual radioactivity of 100 μL of the homogenate before filtration through the glass filter was also measured in the same manner. By calculating [residual radioactivity in filter/residual radioactivity in 100 μL of homogenate], correction by the dose of [^3H]MK-801 was performed, and the value was used as a binding ratio of [^3H]MK-801 in the NMDA receptor expressed in the hippocampus tissue of each individual. […]
# [5] = in vivo; cited from earlier work
# [6] = intravenous single administration; cited from earlier work
# [7] = in vivo; cited from earlier work; remark: listed apart in the source
# Sequence of NMDA receptor composed of four subunits including 2 sets of heterodimers of NR1 and NR2B (human GRIN1 and GRIN2B expressed in HEK293 cell) (Q13224 27-1484, other chains not shown): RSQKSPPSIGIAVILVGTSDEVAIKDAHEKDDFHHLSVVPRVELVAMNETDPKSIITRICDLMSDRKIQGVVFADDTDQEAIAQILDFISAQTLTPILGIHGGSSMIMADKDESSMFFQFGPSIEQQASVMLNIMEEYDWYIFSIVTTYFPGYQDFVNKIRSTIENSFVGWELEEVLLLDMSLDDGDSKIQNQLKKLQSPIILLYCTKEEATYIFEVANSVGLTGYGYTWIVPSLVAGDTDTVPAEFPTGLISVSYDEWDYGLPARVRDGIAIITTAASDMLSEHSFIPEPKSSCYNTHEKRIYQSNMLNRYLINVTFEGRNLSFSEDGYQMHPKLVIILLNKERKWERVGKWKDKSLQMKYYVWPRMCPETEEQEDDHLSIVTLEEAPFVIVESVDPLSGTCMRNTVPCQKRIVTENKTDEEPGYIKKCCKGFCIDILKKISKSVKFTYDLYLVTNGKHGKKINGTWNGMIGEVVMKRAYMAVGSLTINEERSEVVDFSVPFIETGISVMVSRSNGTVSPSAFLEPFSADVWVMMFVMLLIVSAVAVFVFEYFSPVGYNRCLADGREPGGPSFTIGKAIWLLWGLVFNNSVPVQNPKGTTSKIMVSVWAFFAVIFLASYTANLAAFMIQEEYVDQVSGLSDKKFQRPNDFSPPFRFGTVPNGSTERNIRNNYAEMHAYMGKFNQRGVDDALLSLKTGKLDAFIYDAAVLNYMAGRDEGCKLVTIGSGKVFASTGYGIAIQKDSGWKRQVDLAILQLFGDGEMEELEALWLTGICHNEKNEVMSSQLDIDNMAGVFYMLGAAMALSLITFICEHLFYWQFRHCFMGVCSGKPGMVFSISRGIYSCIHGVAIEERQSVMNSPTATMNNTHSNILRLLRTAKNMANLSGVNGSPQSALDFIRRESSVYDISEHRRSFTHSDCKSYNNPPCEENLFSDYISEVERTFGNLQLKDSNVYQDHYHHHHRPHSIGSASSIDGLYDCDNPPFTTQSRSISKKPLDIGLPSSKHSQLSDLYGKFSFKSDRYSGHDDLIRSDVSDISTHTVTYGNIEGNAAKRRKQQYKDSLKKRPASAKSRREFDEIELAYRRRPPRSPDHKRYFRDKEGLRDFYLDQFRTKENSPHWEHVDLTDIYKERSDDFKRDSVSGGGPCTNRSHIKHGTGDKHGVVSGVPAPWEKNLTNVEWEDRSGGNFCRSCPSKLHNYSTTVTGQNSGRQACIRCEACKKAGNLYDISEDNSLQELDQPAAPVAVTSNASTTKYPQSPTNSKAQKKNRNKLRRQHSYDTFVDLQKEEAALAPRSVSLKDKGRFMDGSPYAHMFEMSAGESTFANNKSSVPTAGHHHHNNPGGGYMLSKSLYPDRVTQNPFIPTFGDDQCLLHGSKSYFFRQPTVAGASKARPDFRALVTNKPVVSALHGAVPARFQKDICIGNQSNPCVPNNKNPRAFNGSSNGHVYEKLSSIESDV
structure (smiles),measurement,setting,value
"C[C@@H]([C@@H](O)c1ccc(O)cc1)N1CCC(O)(c2ccccc2)CC1 [CP-101, 606]",treatment resistant-depression symptom,[1],significantly improves treatment resistant-depression symptom
same,number of occurrence and depth of cortical spreading depression,[2],suppress the number of occurrence and the depth of cortical spreading depression
"COc1ncc(C#N)cc1CNC(=O)c1cnc(OC(F)F)c(F)c1 [Example 9, N-[(5-cyano-2-methoxypyridin-3-yl)methyl]-6-(difluoromethoxy)-5-fluoropyridine-3-carboxamide]",inhibition at 10 µM,[3],94%
same,"inhibitory rate (1 mg/kg, p.o.)",[4],10%
"COc1ccc(C#N)c(F)c1CNC(=O)c1cnc(OC(F)F)c(F)c1 [Example 17, N-[(3-cyano-2-fluoro-6-methoxyphenyl)methyl]-6-(difluoromethoxy)-5-fluoropyridine-3-carboxamide]",inhibition at 10 µM,[3],96%
same,"inhibitory rate (1 mg/kg, p.o.)",[4],17%
CC(C(O)c1ccc(O)cc1)N1CCC(Cc2ccccc2)CC1 (stereo not drawn) [Ifenprodil],pain sense threshold,[5],the pain sense threshold increases
CNC1(c2ccccc2Cl)CCCCC1=O (stereo not drawn) [ketamine],depression symptoms accompanying major depression and bipolar disorder,[6],improves depression symptoms accompanying major depression and bipolar disorder rapidly and in a sustained manner
CC12CC3CC(C)(C1)CC(N)(C3)C2 [memantine],peripheral symptoms of dementia,[7],partially improves peripheral symptoms of dementia
